Source: patent US10927117B2 (BEIGENE SWITZERLAND GMBH, priority 2016, dated 2021)
“Also recorded” adds a separate entry of the source.

How the values were obtained:
[1] = tested on: advanced B cell malignancies; assay: Phase 1 trial in patients with advanced B cell malignancies (cutoff Oct. 19, 2015); type: in vivo, human
Description: A total of 39 patients, including all 25 patients from the initial dose-escalation component and 14 patients from the ongoing dose-expansion component were enrolled.
As of Oct. 19, 2015, the cutoff date for data analysis, 29 objective responses have been observed, including 3 complete responses (CRs), 1 very good partial response (VGPR), and 25 partial responses (PRs). 31 of the 39 patients remain on study treatment, free of progression, including all patients to date who have achieved an objective response.

[2] = tested on: rituximab-induced antigen-dependent cell-mediated cytotoxicity (ADCC); assay: Rituximab-induced ADCC inhibition; type: cell-based
[3] = Metabolism in human liver microsomes (responsible CYP isoform)
[4] = Pharmacokinetics study in mouse; type: in vivo; conditions: ICR mice, oral gavage
Method: For time course study, mice were randomly assigned into 7 groups with 4 mice per group. […] For dose dependency study, mice were randomly assigned into 9 groups with 4 mice per group. […] Treatments were administered by oral gavage (p.o.) in a volume of 10 ml/kg body weight. Body weight was assessed immediately before dosing and volume dosed was adjusted accordingly.
PK SAMPLE PREPARATION: For time course study, blood samples (50 μL per mouse) were collected from the retro-orbital sinus under isoflurane/oxygen anesthesia at 15 min after dosing (this group of mice were also used for 24 hr time point) or heart puncture after euthanization for the other time points. For dose dependency study, blood samples were collected from the retro-orbital sinus under isoflurane/oxygen anesthesia at 30 minutes after dosing. Plasma was collected by centrifugation at 3,000 g for 10 minutes and was kept frozen in −80° C. until analysis.
PK Analysis: maximum plasma concentration (Cmax) and time to reach Cmax (Tmax) were taken directly from the plasma concentration versus time profiles.

[5] = Pharmacokinetics in rats (LC-MS/MS); type: in vivo, Sprague-Dawley rats
[6] = Physical and long term stability test; type: physicochemical
[7] = Burkitt's-like Lymphoma patients
[8] = Burkitt's-like Lymphoma patients, number of patients/total
[9] = Chronic Lymphocytic Leukemia patients
[10] = Chronic Lymphocytic Leukemia patients, number of patients/total
[11] = DLBCL patients, number of patients/total
[12] = Hairy Cell Leukemia patients, number of patients/total
[13] = Indolent NHL patients, number of patients/total
[14] = Mantle Cell Lymphoma patients, number of patients/total
[15] = Waldenström's Macroglobulinemia patients
[16] = Waldenström's Macroglobulinemia patients, number of patients/total
[17] = 25° C./60% RH for up to 24 months
[18] = 40° C./75% RH for up to 6 months

SMILES: C=CC(=O)N1CCC([C@@H]2CCNc3c(C(N)=O)c(-c4ccc(Oc5ccccc5)cc4)nn32)CC1 [Compound 1, (S)-7-(1-acryloylpiperidin-4-yl)-2-(4-phenoxyphenyl)-4,5,6,7-tetra-hydropyrazolo[1,5-a]pyrimidine-3-carboxamide]
- patients who discontinued ([1]; 6 disease progression, 2 adverse events related to underlying malignancy): 8
- exacerbation or new event of atrial fibrillation/flutter (AF) ([1]; 6 patients with baseline history of AF): no exacerbation or new event of AF
- complete responses (CRs) ([1]; 39 patients enrolled): 3
- partial responses (PRs) ([1]; 39 patients enrolled): 25
- very good partial response (VGPR) ([1]; 39 patients enrolled): 1
- objective responses ([1]; 39 patients enrolled, cutoff Oct. 19, 2015): 29
- Best Response CR [1, 7]: (0%)
- Best Response PD [1, 7]: (100%)
- Best Response PR [1, 7]: (0%)
- Best Response SD [1, 7]: (0%)
- ORR (CR + PR) [1, 7]: (0%)
- Best Response CR [1, 8]: 0/1
- Best Response PD [1, 8]: 1/1
- Best Response PR [1, 8]: 0/1
- Best Response SD [1, 8]: 0/1
- ORR (CR + PR) [1, 8]: 0/1
- Best Response PD [1, 9]: (0%)
- Best Response SD [1, 9]: (7%)
- ORR (CR + PR) [1, 9]: (93%)
- Best Response CR ([1]; Chronic Lymphocytic Leukemia patients, cutoff Oct. 19, 2015): (0%)
- Best Response PR ([1]; Chronic Lymphocytic Leukemia patients, includes five patients with lymphocytosis at latest assessment): (93%)
- Best Response PD ([1]; Chronic Lymphocytic Leukemia patients, number of patients): 0
- Best Response SD [1, 10]: 1/14
- ORR (CR + PR) [1, 10]: 13/14
- Best Response CR ([1]; Chronic Lymphocytic Leukemia patients, number of patients/total, cutoff Oct. 19, 2015): 0/14
- Best Response PR ([1]; Chronic Lymphocytic Leukemia patients, number of patients/total, includes five patients with lymphocytosis at latest assessment): 13/14^1
- Best Response CR ([1]; DLBCL patients): (25%)
- Best Response PD ([1]; DLBCL patients): (75%)
- Best Response PR ([1]; DLBCL patients): (0%)
- Best Response SD ([1]; DLBCL patients): (0%)
- ORR (CR + PR) ([1]; DLBCL patients): (25%)
- Best Response CR [1, 11]: 1/4
- Best Response PD [1, 11]: 3/4
- Best Response PR [1, 11]: 0/4
- Best Response SD [1, 11]: 0/4
- ORR (CR + PR) [1, 11]: 1/4
- Best Response CR ([1]; Hairy Cell Leukemia patients): (0%)
- Best Response PD ([1]; Hairy Cell Leukemia patients): (0%)
- Best Response PR ([1]; Hairy Cell Leukemia patients): (100%)
- Best Response SD ([1]; Hairy Cell Leukemia patients): (0%)
- ORR (CR + PR) ([1]; Hairy Cell Leukemia patients): (100%)
- Best Response CR [1, 12]: 0/1
- Best Response PD [1, 12]: 0/1
- Best Response PR [1, 12]: 1/1
- Best Response SD [1, 12]: 0/1
- ORR (CR + PR) [1, 12]: 1/1
- Best Response CR ([1]; Indolent NHL patients): (0%)
- Best Response PD ([1]; Indolent NHL patients): (0%)
- Best Response PR ([1]; Indolent NHL patients): (0%)
- Best Response SD ([1]; Indolent NHL patients): (100%)
- ORR (CR + PR) ([1]; Indolent NHL patients): (0%)
- Best Response CR [1, 13]: 0/2
- Best Response PD [1, 13]: 0/2
- Best Response PR [1, 13]: 0/2
- Best Response SD [1, 13]: 2/2
- ORR (CR + PR) [1, 13]: 0/2
- Best Response CR ([1]; Mantle Cell Lymphoma patients): (20%)
- Best Response PD ([1]; Mantle Cell Lymphoma patients): (10%)
- Best Response PR ([1]; Mantle Cell Lymphoma patients): (60%)
- Best Response SD ([1]; Mantle Cell Lymphoma patients): (10%)
- ORR (CR + PR) ([1]; Mantle Cell Lymphoma patients): (80%)
- Best Response CR [1, 14]: 2/10
- Best Response PD [1, 14]: 1/10
- Best Response PR [1, 14]: 6/10
- Best Response SD [1, 14]: 1/10
- ORR (CR + PR) [1, 14]: 8/10
- Best Response CR [1, 15]: (0%)
- Best Response PD [1, 15]: (14%)
- Best Response SD [1, 15]: (0%)
- ORR (CR + PR) [1, 15]: (86%)
- Best Response PR ([1]; Waldenström's Macroglobulinemia patients, includes one patient with VGPR): (86%)
- Best Response CR [1, 16]: 0/7
- Best Response PD [1, 16]: 1/7
- Best Response SD [1, 16]: 0/7
- ORR (CR + PR) [1, 16]: 6/7
- Best Response PR ([1]; Waldenström's Macroglobulinemia patients, number of patients/total, includes one patient with VGPR): 6/7^2
- ≥Grade 3 AEs assessed as possibly drug-related ([1]; all self-limited neutropenia): 4
- patients who died during study ([1]; disease progression or its complications): 3
- drug-related serious adverse events (SAEs) ([1]; human, in vivo): no drug-related serious adverse events
- number of ≥Grade 3 AEs ([1]; human, in vivo): 19
- major hemorrhage ([1]; not considered drug-related): one case
- patients remaining on study treatment, free of progression ([1]; of the 39 patients): 31
- inhibition of rituximab-induced ADCC compared with ibrutinib [2]: significantly less inhibition
- major CYP isoform responsible for the metabolism [3]: CYP3A

SMILES: C=CC(=O)N1CCC([C@@H]2CCNc3c(C(N)=O)c(-c4ccc(Oc5ccccc5)cc4)nn32)CC1 [Crystalline Form A, (S)-7-(1-acryloylpiperidin-4-yl)-2-(4-phenoxyphenyl)-4,5,6,7-tetra-hydropyrazolo[1,5-a]pyrimidine-3-carboxamide]
- absorption and elimination [4]: quickly absorbed and eliminated
- linearity of kinetics over the dose range ([5]; female rats): linear
- accumulation following multiple oral dosing ([5]; male and female rats): no statistically significant accumulation
- linearity of kinetics ([5]; male rats): not as good
- absorption ([5]; rats): quickly absorbed
- oral bioavailability ([5]; rats): good oral bioavailability
- plasma clearance (CL) ([5]; rats): high plasma clearance
- crystal form change [6, 17]: no crystal form and optical purity changes; also recorded: no crystal form change
- optical purity change [6, 17]: no crystal form and optical purity changes
- chemical purity (% area) T0 ([6]; 25° C./60% RH): 99.2%
- chemical purity (% area) T12 ([6]; 25° C./60% RH, T12): 99.2%
- crystal form change [6, 18]: no crystal form and optical purity changes; also recorded: no crystal form change
- optical purity change [6, 18]: no crystal form and optical purity changes
- chemical purity (% area) T0 ([6]; 40° C./75% RH): 99.1%
- chemical purity (% area) T6 ([6]; 40° C./75% RH, T6): 99.4%
- crystal form change (XRPD) ([6]; 80° C. for two days): no crystal form change
